Several values for one entry are separate records, joined by “and”; a condition that tells them apart may be missing. Identical values can stand only once.
Assays:
[1] = tested on: IGF-1 mRNA in gastrocnemius; experiment: Expression of IGF-1 mRNA in gastrocnemius at recovery from tail-suspension muscular atrophy; format: in vivo, C57BL/6J mice; details: mice after tail suspension; feed with 0.07 mass % nobiletin for 3 days
Description: (§1) Male C57BL/6J mice (10-week old) were preliminarily bred for one week, and divided into six groups (control group (Cont), standard feed administration after tail suspension group (Fix), Citrus depressa extract administration after tail suspension group (Fix+SE), polymethoxyflavonoid administration after tail suspension group (Fix+PMF), nobiletin administration after tail suspension group (Fix+NOB), and tangeretin administration after tail suspension group (Fix+TAN), n=8 for the Cont, Fix, Fix+SE, Fix+PMF, Fix+NOB, and Fix+TAN groups).
(§2) After the preliminary breeding, muscular atrophy was induced in the mice of the Fix and Fix+SE groups by tail suspension for two weeks. […]
On day 4 after the change of the feed, the mice were dissected, and the serum IGF-1 concentration, expression of follistatin mRNA in the gastrocnemius, expression of IGF-1 mRNA in the gastrocnemius, and phosphorylation ratio (β+γ) of p70S6K1 in the gastrocnemius were evaluated.
(§3) The serum IGF-1 concentration was measured in the same manner as that used in Example 1. The expression of follistatin mRNA in the gastrocnemius was measured in the same manner as that used in Example 1, except that the hind leg gastrocnemius was extracted from each […], and Assay ID Mm00514982_ml (Applied Biosystems) was used as the primer. […]

[2] = tested on: p70S6K1; experiment: Phosphorylation ratio of p70S6K1 in gastrocnemius at recovery from tail-suspension muscular atrophy; format: in vivo, C57BL/6J mice; details: mice after tail suspension; feed with 0.04 mass % tangeretin for 3 days
Description: as §1, §2
On day 4 after the change of the feed, the mice were dissected, and the serum IGF-1 concentration, expression of follistatin mRNA in the gastrocnemius, expression of IGF-1 mRNA in the gastrocnemius, and phosphorylation ratio (β+γ) of p70S6K1 in the gastrocnemius were evaluated. […]
as §3

With COc1ccc(-c2cc(=O)c3c(OC)c(OC)c(OC)c(OC)c3o2)cc1OC [NOB, nobiletin] the “Expression of IGF-1 mRNA in gastrocnemius (AU)” value [1] was 1.75±0.40 AU and 1.75 AU and the “Expression of IGF-1 mRNA in gastrocnemius, Fix+NOB group compared with the Fix group” value [1] was 107%.

With COc1ccc(-c2cc(=O)c3c(OC)c(OC)c(OC)c(OC)c3o2)cc1 [TAN, tangeretin] the “Phosphorylation ratio of p70S6K1, Fix+TAN group compared with the Fix group” value [2] was 112% and the “Phosphorylation ratio of p70S6K1 in gastrocnemius (β + γ) (%)” value [2] was 47.8±11.8% and 47.8%.

From patent US9801404B2, “IGF-1 production-promoting agent” (MORINAGA MILK INDUSTRY CO., LTD., priority 2012, dated 2017)
